Measured values: patent publication US20190307749A1, “Mitochondria-Division Inhibitor 1 Protects Against Amyloid-B Induced Mitochondrial Fragmentation and Synaptic Damage in Alzheimer's Disease” (Texas Tech University System, priority 2018, published 2019)

Assays:
[1] = system: GTPase Drp1; conditions: by blocking the self-assembly of Drp1; reference [34]; cited from earlier work
[2] = system: N2a cells; assay: H2O2 production (Amplex Red H2O2 assay); format: cell-based, mouse
Procedure: (§1) Tissue culture: The N2a cells were grown for 3 days in a serum-free medium (1:1 mixture of DMEM and OptiMEM, plus penicillin and streptomycin [Invitrogen, Carlsbad, Calif., USA]) until the cells developed neuronal processes.
Mitochondrial functional assays. H2O2 production: Using an Amplex® Red H2O2 assay kit (Molecular Probes, Eugene, Oreg., USA), H2O2 production was measured using cell pellets, as described in Manczak and Reddy. Briefly, H2O2 production was measured in the protein lysates prepared from cell pellets of control untreated N2a cells and 4 treatment groups (FIG. 1). A BCA protein assay kit (Pierce Biotechnology) was used to estimate protein concentration. The reaction mixture contained mitochondrial proteins (μg/μl), Amplex Red reagents (50 μM), horseradish peroxidase (0.1 U/ml), and a reaction buffer (1×). The mixture was incubated at room temperature for 30 minutes, followed by spectrophotometer readings of fluorescence (570 nm). Finally, H2O2 production was determined, using a standard curve equation expressed in nmol/μg mitochondrial protein.

[3] = system: mouse neuroblastoma (N2a) cells; assay: Quantitative real-time RT-PCR: mRNA expression of mitochondrial dynamics, biogenesis and synaptic genes; format: cell-based; conditions: vs Aβ42 treated cells
[4] = system: mouse neuroblastoma (N2a) cells; assay: Immunoblotting analysis of mitochondrial dynamics, biogenesis and synaptic proteins; format: cell-based
Procedure: as §1
Twenty g of protein was resolved from each group of cells on a 4-12% Nu-PAGE gel (Invitrogen). The resolved proteins were transferred to […] (Novax Inc., San Diego, Calif., USA) and were then incubated for 1 hour at room temperature with a blocking buffer (5% dry milk dissolved in a TBST buffer). The PVDF membranes were incubated overnight with primary antibodies (see Table 2) and washed 3 times with a TBST buffer at 10-minute intervals. They were then incubated for 2 hours with appropriate secondary antibodies, followed by 3 additional washes at 10-minute intervals. Mitochondrial and synaptic proteins were detected with cheminilumniscence reagents (Pierce Biotechnology, Rockford, Ill., USA), and the bands from immunoblots were quantified on a Kodak scanner, following manufacturer's instructions (ID Image Analysis Software, Kodak Digital Science, Kennesaw, Ga., USA), and the gel images were analyzed from gel images captured with a Kodak digital science CD camera. The lanes were marked to define the positions and specific regions of the bands. An ID fine-band command was used to locate and to scan the bands in each lane and to record the readings.

[5] = Aβ42 6 hrs then Mdivi1 24 hrs (Aβ42+Mdivi1), vs untreated N2a cells
[6] = Mdivi1 24 hrs then Aβ42 6 hrs (Mdivi1+Aβ42), vs untreated N2a cells
[7] = Aβ42 6 hrs then Mdivi1 24 hrs (Aβ42+Mdivi1)
[8] = Aβ42 6 hrs then Mdivi1 24 hrs (Aβ42+Mdivi1), vs Aβ42 treated cells
[9] = Mdivi1 24 hrs or Aβ42 20 μM 6 hrs alone, vs untreated N2a cells
[10] = Mdivi1 24 hrs then Aβ42 6 hrs (Mdivi1+Aβ42), vs Aβ42 treated cells

In the case of `COc1cc(-n2c(S)nc3ccccc3c2=O)c(Cl)cc1Cl` [Mdivi1, 3-(2,4-Dichloro-5-methoxyphenyl)-2,3-dihydro-2-thioxo-4(1H)-quinazolinone], the “GTPase Drp1 activity” value [1] is listed as “inhibits”, the H2O2 levels ([2]; Aβ42 6 hrs then Mdivi1 24 hrs (Aβ42+Mdivi1), vs N2a+Aβ42 cells) is listed as “significantly lower” and the H2O2 levels [2, 5] is listed as “unchanged”. The H2O2 levels ([2]; Mdivi1 24 hrs then Aβ42 6 hrs (Mdivi1+Aβ42), vs N2a+Aβ42 cells) was “significantly lower”, the H2O2 levels [2, 6] was “unchanged” and the “Nrf2 mRNA fold change” value [3, 7] was 2.0 fold. The “PSD95 mRNA fold change” value [3, 7] was 8.6 fold, the “TFAM mRNA fold change” value [3, 7] was 2.9 fold and the “Mfn1 mRNA fold change” value ([3]; Mdivi1 24 hrs then Aβ42 6 hrs (Mdivi1+Aβ42)) was 2.6 fold. For the same molecule, the Drp1 protein level [4, 8] was “significantly lower”, the Fis1 protein level [4, 8] was “significantly lower” and the Mfn1 protein level [4, 8] was “significantly higher”. The Mfn2 protein level [4, 8] was “significantly higher”, the Nrf1 protein level [4, 8] was “significantly higher” and the Opa1 protein level [4, 8] was “significantly higher”. The PGC1α protein level [4, 8] was “significantly higher”, the PSD95 protein level [4, 8] was “significantly higher” and the Synaptophysin protein level [4, 8] was “significantly higher”. For the same molecule, the TFAM protein level [4, 8] was “significantly higher”, the Drp1 protein level [4, 5] was “Unchanged” and the Fis1 protein level [4, 5] was “Unchanged”. For the same molecule, the Drp1 protein level [4, 9] was “significantly lower”, the Fis1 protein level [4, 9] was “significantly lower” and the Mfn1 protein level [4, 9] was “significantly higher”. For the same molecule, the Mfn2 protein level [4, 9] was “significantly higher”, the Nrf2 protein level [4, 9] was “significantly higher” and the Opa1 protein level [4, 9] was “significantly higher”. The PGC1α protein level [4, 9] was “significantly higher”, the TFAM protein level [4, 9] was “significantly higher” and the Drp1 protein level [4, 10] was “significantly lower”. The Fis1 protein level [4, 10] was “significantly lower”, the Mfn1 protein level [4, 10] was “significantly higher” and the Mfn2 protein level [4, 10] was “significantly higher”. The Nrf1 protein level [4, 10] was “significantly higher”, the Nrf2 protein level [4, 10] was “significantly higher” and the Opa1 protein level [4, 10] was “significantly higher”. For the same molecule, the PGC1α protein level [4, 10] was “significantly higher”, the PSD95 protein level [4, 10] was “significantly higher” and the Synaptophysin protein level [4, 10] was “significantly higher”. For the same molecule, the TFAM protein level [4, 10] was “significantly higher”, the Drp1 protein level [4, 6] was “unchanged” and the Fis1 protein level [4, 6] was “unchanged”.
